Source: ChEMBL document CHEMBL1122135, “Modifications of primaquine as antimalarials. 3. 5-Phenoxy derivatives of primaquine” (J Med Chem, 1982)

What was measured:
[1] = species: Mus musculus; test: Number of mice (Mus musculus) survived after 60 days of post infection with Plasmodium berghei; assay type: functional
[2] = system: Mus musculus; test: Antimalarial activity was determined in Plasmodium berghei infected mice (Mus musculus) at 80 mg/kg dose; assay type: functional
[3] = system: Mus musculus; test: Antimalarial activity was determined in Plasmodium berghei infected mice (Mus musculus) at 40 mg/kg dose; assay type: functional; design: unit not given beside the values
[4] = system: Plasmodium cynomolgi; test: Cures in Plasmodium cynomolgi infected rhesus monkey at 0.25 mg/kg, n=1; assay type: functional
[5] = system: Plasmodium cynomolgi; test: Cures in Plasmodium cynomolgi infected rhesus monkey at 0.5 mg/kg; n=2; assay type: functional
[6] = system: Plasmodium cynomolgi; test: Cures in Plasmodium cynomolgi infected rhesus monkey at 1 mg/kg, n=3; assay type: functional
[7] = system: Plasmodium cynomolgi; test: Cures in Plasmodium cynomolgi infected rhesus monkey at 0.75 mg/kg, n=6; assay type: functional
[8] = system: Mus musculus; test: Antimalarial activity was determined in Plasmodium berghei infected mice (Mus musculus) at 160 mg/kg dose; assay type: functional
[9] = system: Mus musculus; test: Antimalarial activity was determined in Plasmodium berghei infected mice (Mus musculus) at 20 mg/kg dose; assay type: functional; design: unit not given beside the values
[10] = system: Plasmodium cynomolgi; test: Cures in Plasmodium cynomolgi infected rhesus monkey at 10 mg/kg, n=1; assay type: functional
[11] = system: Mus musculus; test: (§1) Antimalarial activity was determined in Plasmodium berghei infected mice (Mus musculus) at 320 mg/kg dose; assay type: functional; design: unit not given beside the values
[12] = system: Plasmodium cynomolgi; test: Cures in Plasmodium cynomolgi infected rhesus monkey at 1 mg/kg, n=1; assay type: functional
[13] = system: Mus musculus; test: Antimalarial activity was determined in Plasmodium berghei infected mice (Mus musculus) at 640 mg/kg dose; assay type: functional
[14] = system: Plasmodium cynomolgi; test: Cures in Plasmodium cynomolgi infected rhesus monkey at 3.16 mg/kg, n=2; assay type: functional
[15] = system: Mus musculus; test: Number of toxic death was determined in Plasmodium berghei infected mice (Mus musculus) at 320 mg/kg dose; assay type: ADME, organism-based; design: dose 320 mg/kg; conditions: in vivo
[16] = system: Mus musculus; test: Number of mice (Mus musculus) survived after 60 days of post infection with Plasmodium berghei at a dose of 40 mg/kg; assay type: functional
[17] = system: Mus musculus; test: Number of mice (Mus musculus) survived after 60 days of post infection with Plasmodium berghei at a dose of 20 mg/kg; assay type: functional
[18] = system: Mus musculus; test: Number of mice (Mus musculus) survived after 60 days of post infection with Plasmodium berghei at a dose of 80 mg/kg; assay type: functional
[19] = system: Mus musculus; test: Antimalarial activity was determined in Plasmodium berghei infected mice (Mus musculus) at 10 mg/kg dose; assay type: functional
[20] = system: Mus musculus; test: Number of mice (Mus musculus) survived after 60 days of post infection with Plasmodium berghei at a dose of 160 mg/kg; assay type: functional
[21] = system: Mus musculus; test: Number of toxic death was determined in Plasmodium berghei infected mice (Mus musculus) at 640 mg/kg dose; assay type: ADME, organism-based; design: dose 640 mg/kg; conditions: in vivo
[22] = system: Mus musculus; test: Number of mice (Mus musculus) survived after 60 days of post infection with Plasmodium berghei at a dose of 640 mg/kg; assay type: functional
[23] = system: Mus musculus; test: Number of mice (Mus musculus) survived after 60 days of post infection with Plasmodium berghei at a dose of 320 mg/kg; assay type: functional
[24] = system: Plasmodium cynomolgi; test: Cures in Plasmodium cynomolgi infected rhesus monkey at 3.16 mg/kg, n=1; assay type: functional
[25] = system: Plasmodium cynomolgi; test: Cures in Plasmodium cynomolgi infected rhesus monkey at 0.5 mg/kg, n=1; assay type: functional
[26] = system: Mus musculus; test: Number of mice (Mus musculus) survived after 60 days of post infection with Plasmodium berghei at a dose of 10 mg/kg; assay type: functional
[27] = system: Plasmodium cynomolgi; test: Cures in Plasmodium cynomolgi infected rhesus monkey at 0.25 mg/kg, n=5; assay type: functional
[28] = system: Plasmodium cynomolgi; test: Cures in Plasmodium cynomolgi infected rhesus monkey at 0.125 mg/kg, n=1; assay type: functional
[29] = system: Mus musculus; test: as §1; assay type: functional
[30] = system: Plasmodium cynomolgi; test: Cures in Plasmodium cynomolgi infected rhesus monkey at 0.316 mg/kg, n=4; assay type: functional
[31] = system: Plasmodium cynomolgi; test: Cures in Plasmodium cynomolgi infected rhesus monkey at 1 mg/kg, n=2; assay type: functional
[32] = system: Plasmodium cynomolgi; test: Cures in Plasmodium cynomolgi infected rhesus monkey at 0.316 mg/kg, n=2; assay type: functional
[33] = system: Plasmodium cynomolgi; test: Cures in Plasmodium cynomolgi infected rhesus monkey at 0.125 mg/kg; n=5; assay type: functional
[34] = system: Plasmodium cynomolgi; test: Number of cures in Plasmodium cynomolgi infected rhesus monkey at 0.25 mg/kg, n=8; assay type: functional
[35] = system: Plasmodium cynomolgi; test: Cures in Plasmodium cynomolgi infected rhesus monkey at 0.5 mg/kg, n=5; assay type: functional
[36] = system: Plasmodium cynomolgi; test: Cures in Plasmodium cynomolgi infected rhesus monkey at 0.5 mg/kg, n=12; assay type: functional
[37] = system: Plasmodium cynomolgi; test: Cures in Plasmodium cynomolgi infected rhesus monkey at 0.75 mg/kg, n=9; assay type: functional
[38] = system: Mus musculus; test: Number of toxic death was determined in Plasmodium berghei infected mice (Mus musculus) at 160 mg/kg dose; assay type: ADME, organism-based; design: dose 160 mg/kg; conditions: in vivo

Row | SMILES | Delta MST [2] | Delta MST [3] | Delta MST [8] | Delta MST [9] | Cures [10] | Delta MST [11] | Cures [12] | also measured
1 | COc1cc(NC(C)CCCN)c2ncccc2c1Oc1ccc(Cl)cc1 (stereo not given) | 5.5 | 4.7 | 7.1 | 0.7 | 1 | 8.1 | – | Cures [1]: 2; Cures [4]: 0; Cures [5]: 0; Cures [6]: 3; Cures [7]: 5
2 | COc1ccc(Oc2c(OC)cc(NC(C)CCCN)c3ncccc23)cc1 (stereo not given) | 1.6 | 0.4 | 6 | 0.4 | 1 | 8.6 | 0 | Cure [13]: 4
3 | COc1cc(NC(C)CCCN)c2ncccc2c1Oc1ccc(Cl)cc1Cl (stereo not given) | 0.8 | 0.4 | 2.2 | 0.4 | 1 | 4.4 | – | Delta MST [13]: 10.4; Cures [6]: 0; Cures [14]: 2
4 | COc1cc(NC(C)CCCN)c2nccc(C)c2c1Oc1ccccc1 (stereo not given) | – | – | – | – | – | – | – | Toxic deaths [15]: 3; Cures [16]: 3; Cures [17]: 4; Cures [18]: 4; Delta MST [19]: 8.7; Cures [20]: 4; Toxic deaths [21]: 2
5 | COc1cc(NC(C)CCCN)c2nccc(C)c2c1Oc1cc(C(F)(F)F)cc(C(F)(F)F)c1 (stereo not given) | – | – | – | 4.3 | – | – | – | Cures [16]: 3; Cures [18]: 5; Cures [22]: 5; Delta MST [19]: 1.7; Cures [20]: 5; Cures [23]: 5
6 | COc1cc(NC(C)CCCN)c2ncccc2c1Oc1cc(C(F)(F)F)cc(C(F)(F)F)c1 (stereo not given) | 0.3 | 0.3 | 1.5 | 0.7 | 1 | 6.3 | 0 | Cures [24]: 1; Delta MST [13]: 7.9
7 | COc1cc(NC(C)CCCN)c2ncccc2c1Oc1ccc(OC(F)(F)F)cc1 (stereo not given) | -0.3 | -0.3 | 0.5 | -0.3 | 1 | 0.7 | 0 | Toxic deaths [21]: 1
8 | COc1cc(NC(C)CCCN)c2ncccc2c1Oc1ccc(NC(C)=O)cc1 (stereo not given) | – | – | – | – | – | – | 0 | Cures [25]: 0
9 | COc1cc(NC(C)CCCN)c2nccc(C)c2c1Oc1ccc(F)c(C(F)(F)F)c1 (stereo not given) | – | – | – | – | – | – | – | Cures [26]: 1; Cures [16]: 5; Cures [17]: 1; Cures [18]: 5; Cures [22]: 5; Cures [20]: 5; Cures [23]: 5
10 | COc1cc(NC(C)CCCN)c2ncccc2c1Oc1cccc(C(F)(F)F)c1 (stereo not given) | 4.1 | 1.3 | 7.1 | 0.5 | – | 13.5 | 1 | Cures [13]: 5; Cures [5]: 2; Cures [27]: 3; Cures [28]: 0
11 | COc1cc(NC(C)CCCN)c2ncc(C)cc2c1Oc1ccc(F)c(C(F)(F)F)c1 (stereo not given) | 4 | 9.9 | 5 | 5.9 | – | 4 | – | Toxic deaths [21]: 1
12 | COc1cc(NC(C)CCCN)c2ncccc2c1Oc1ccc(Cl)c(Cl)c1 (stereo not given) | 0.4 | 0.8 | 6 | 1.2 | 1 | – | – | Cures [13]: 1; Cures [29]: 1; Cures [6]: 1; Cures [14]: 2
13 | COc1cc(NC(C)CCCN)c2ncccc2c1Oc1ccccc1 (stereo not given) | 1.7 | 1.5 | 5.1 | 0.3 | – | 7.5 | – | Cures [1]: 2
14 | COc1cc(NC(C)CCCN)c2nccc(C)c2c1 (stereo not given) | – | – | 9 | – | – | 10 | – | Cures [30]: 0; Toxic deaths [21]: 1; Cures [31]: 2
15 | COc1cc(NC(C)CCCN)c2ncccc2c1Oc1ccc(F)c(C(F)(F)F)c1 (stereo not given) | 3.4 | 0.8 | 4.6 | -0.2 | – | 12.2 | 1 | Cures [13]: 2; Cures [32]: 2
16 | COc1cc(NC(C)CCCN)c2ncccc2c1Oc1ccc(F)cc1 (stereo not given) | 5.7 | 2.1 | 7.5 | – | – | 8.9 | – | Cures [1]: 5; Cures [33]: 0; Cures [34]: 3; Cures [35]: 5
17 | COc1cc(NC(C)CCCN)c2ncccc2c1 (stereo not given) [PRIMAQUINE] | 9.4 | 5 | – | 4 | – | – | – | Toxic deaths [15]: 5; Cures [36]: 10; Cures [34]: 0; Cures [37]: 9; Toxic deaths [21]: 5; Toxic deaths [38]: 2; Cures [32]: 0
